Measurements: patent US20240116985A1, “STAPLED PEPTIDES AND METHODS THEREOF” (priority 2020, published 2024)
Converted amounts (≈) assume the structure as drawn. “And” between values parts separate entries of the source, which are not always exact repeats. Equal values may be shown once. Read-outs that look alike come from different tables or passages of the source.

Tests used:
[1] = target: T1, full-length beta-Catenin (Uniprot ID P35222) (Homo sapiens, UniProt P35222); experiment: Fluorescence polarization IC50 (beta-catenin / 5FAM-TCF4 10-53 competition); format: binding
T1 construct: 10 nM full-length beta-Catenin (Uniprot ID P35222)
T1 sequence (P35222 1-781): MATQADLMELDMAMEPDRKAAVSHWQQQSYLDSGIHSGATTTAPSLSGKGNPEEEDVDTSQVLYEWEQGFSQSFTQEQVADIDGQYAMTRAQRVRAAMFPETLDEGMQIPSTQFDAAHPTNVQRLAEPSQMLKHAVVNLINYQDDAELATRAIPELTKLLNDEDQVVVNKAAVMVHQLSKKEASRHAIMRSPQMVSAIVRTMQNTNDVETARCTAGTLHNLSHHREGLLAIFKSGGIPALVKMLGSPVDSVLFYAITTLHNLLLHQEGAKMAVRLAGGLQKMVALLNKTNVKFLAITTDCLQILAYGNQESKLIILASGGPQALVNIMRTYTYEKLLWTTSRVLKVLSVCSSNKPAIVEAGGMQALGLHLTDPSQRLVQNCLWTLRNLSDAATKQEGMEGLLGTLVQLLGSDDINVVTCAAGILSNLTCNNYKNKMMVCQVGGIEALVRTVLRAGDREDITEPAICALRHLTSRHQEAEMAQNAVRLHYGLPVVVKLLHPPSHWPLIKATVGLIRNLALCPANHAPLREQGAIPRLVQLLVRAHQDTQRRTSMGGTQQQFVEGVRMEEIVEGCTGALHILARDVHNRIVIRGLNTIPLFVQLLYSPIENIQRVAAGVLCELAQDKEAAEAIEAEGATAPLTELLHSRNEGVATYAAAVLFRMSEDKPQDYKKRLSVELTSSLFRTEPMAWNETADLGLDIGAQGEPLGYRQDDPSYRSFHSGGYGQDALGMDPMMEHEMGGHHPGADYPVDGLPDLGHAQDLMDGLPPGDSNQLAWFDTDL

CHI Log D procedure = format: physicochemical; conditions: for chromatographic logD: pH 7.4, CHI Log D
Solubility in PBS = format: physicochemical
In short: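 HPLC quantitation of peptide remaining in the PBS supernatant after ultracentrifugation, referenced to a 50 μM solution in DMSO.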

[2] = target: T2, beta-catenin/TCF4 engagement (Homo sapiens, UniProt P35222); experiment: Nano-BRET target engagement assay (B-cat-Halo & TCF4-Luc in HEK293 cells); format: cell-based
T2 construct: expressed in transfected cells; host or cells: HEK293
T2 sequence (P35222 1-781): T1 sequence (P35222 1-781)

[3] = tested on: TCF/LEF luciferase Reporter in DLD1 cells; experiment: TCF reporter assay (DLD1 TCF/LEF luciferase reporter, Bright-Glo); format: cell-based; conditions: for DLD1 TCF c2 BrightGlo % Inhibition: replicates
In short: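 DLD1 cells stably carrying a TCF/LEF luciferase reporter were plated at 5000 cells/well in RPMI + 4% FBS and treated overnight with a 1:2 compound dilution series. Bright-Glo luminescence read on day 3; viability by CellTiter-Glo. Absolute IC50 determined.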

[4] = absolute IC50, read-out: NanoBRET Abs IC50
[5] = absolute IC50, read-out: DLD1 reporter assay Abs IC50
[6] = first dose = 20 uM (plate map), 20 µM
[7] = third dose = 5 uM (plate map), 5 µM

| SMILES | IC50 ([1]; read-out: beta-Catenin FP IC50) [µM] | chromatographic logD (CHI Log D procedure) | Solubility (Solubility in PBS; Solubility (uM)) [µM] | IC50 [2, 4] [µM] | IC50 [3, 5] [µM] | DLD1 TCF c2 BrightGlo % Inhibition [3, 6] | DLD1 TCF c2 BrightGlo % Inhibition ([3]; 0.625 µM) | DLD1 TCF c2 BrightGlo % Inhibition ([3]; 1.25 µM) | DLD1 TCF c2 BrightGlo % Inhibition ([3]; 2.5 µM) | DLD1 TCF c2 BrightGlo % Inhibition ([3]; 10 µM) | DLD1 TCF c2 BrightGlo % Inhibition [3, 7] | other results |
| --- | --- | --- | --- | --- | --- | --- | --- | --- | --- | --- | --- | --- |
| CC(=O)N1CCC[C@]12CC=CCCCC1(CCCC=CCCCOC(=O)N3CC[C@@](C(=O)N[C@@H](Cc4ccccc4Cl)C(=O)N[C@@H](Cc4csc5ccccc45)C(=O)N[C@@H](C(N)=O)[C@H](C)O)(C3)NC(=O)[C@H](CC(N)=O)NC(=O)[C@H](Cc3ccccc3)NC(=O)[C@H](C)NC(=O)[C@H](C)NC(=O)[C@H](CC(=O)O)NC(=O)[C@H](CC(=O)O)NC1=O)NC(=O)[C@H](CC(C)(C)C)NC(=O)[C@H](CCC(=O)O)NC2=O (stereo partly drawn) [I-1029, Ac-PL3-Glu-Npg-B5-Asp-Asp-Ala-Ala-Phe-Asn-PyrS2-2C1F-BztA-dThr-NH2] | 0.823 | 2.36 | 49 (≈ 94.7 µg/mL) | > 20 | > 20 |  |  |  |  |  |  |  |
| CC(=O)N1CCC[C@]12CC=CCCCC1(CCCC=CCCCOC(=O)N3CC[C@@](C(=O)N[C@@H](Cc4ccccc4Cl)C(=O)N[C@@H](Cc4csc5ccccc45)C(=O)N[C@@H](CCC(N)=O)C(N)=O)(C3)NC(=O)[C@H](CO)NC(=O)[C@H](Cc3ccccc3)NC(=O)[C@H](C)NC(=O)[C@H](C)NC(=O)[C@H](CC(=O)O)NC(=O)[C@H](CC(=O)O)NC1=O)NC(=O)[C@H](CC(C)(C)C)NC(=O)[C@H](CC(=O)O)NC2=O (stereo partly drawn) [I-1017, Ac-PL3-Asp-Npg-B5-Asp-Asp-Ala-Ala-Phe-Ser-PyrS2-2C1F-BztA-Gln-NH2] | 0.005 | 2.11 | 48 (≈ 92.1 µg/mL) | 8.9 | > 20 |  |  |  |  |  |  |  |
| CC(=O)N1CCC[C@]12CC=CCCCC1(CCCC=CCCCOC(=O)N3CC[C@@](C(=O)N[C@@H](Cc4ccccc4Cl)C(=O)N[C@@H](Cc4csc5ccccc45)C(=O)N[C@@H](CO)C(N)=O)(C3)NC(=O)[C@H](CO)NC(=O)[C@H](Cc3ccccc3)NC(=O)[C@H](C)NC(=O)[C@H](C)NC(=O)[C@H](CC(=O)O)NC(=O)[C@H](CC(=O)O)NC1=O)NC(=O)[C@H](Cc1ccccc1)NC(=O)[C@H](CC(=O)O)NC2=O (stereo partly drawn) [I-1051, Ac-PL3-Asp-Phe-B5-Asp-Asp-Ala-Ala-Phe-Ser-PyrS2-2C1F-BztA-Ser-NH2] | 0.014 | 2.23 | 48 (≈ 91.1 µg/mL) | > 20 | > 20 | 20.2% and 21.7% and 24.7% | −1.7% and −3.4% and 0.0% | −12.2% and −5.2% and −3.8% | −12.5% and −11.1% and −13.2% | 3.9% and 5.0% and −0.5% | −4.1% and −5.0% and −11.4% |  |
| CC(=O)N1CCC[C@]12CC=CCCCC1(CCCC=CCCCOC(=O)N3CC[C@@](C(=O)N[C@@H](Cc4ccccc4Cl)C(=O)N[C@@H](Cc4csc5ccccc45)C(=O)N[C@@H](CCC(N)=O)C(N)=O)(C3)NC(=O)[C@H](CC(N)=O)NC(=O)[C@H](Cc3ccccc3)NC(=O)[C@H](C)NC(=O)[C@H](CCCCN)NC(=O)[C@H](CN(CC(=O)O)CC(F)(F)F)NC(=O)[C@H](CC(=O)O)NC1=O)NC(=O)[C@H](CC(C)(C)C)NC(=O)[C@H](CC(=O)O)NC2=O (stereo partly drawn) [I-1011, Ac-PL3-Asp-Npg-B5-Asp-TfeGA-Lys-Ala-Phe-Asn-PyrS2-2C1F-BztA-Gln-NH2] | 0.005 | 2.03 | 23 (≈ 48.6 µg/mL) | 20.8 | > 20 |  |  |  |  |  |  |  |
| CC(=O)N1CCC[C@]12CC=CCCCC1(CCCC=CCCCCCC[C@@](C)(C(=O)N[C@@H](Cc3ccccc3)C(=O)N[C@@H](Cc3csc4ccccc34)C(=O)N[C@@H](CCC(N)=O)C(N)=O)NC(=O)[C@H](CCC(N)=O)NC(=O)[C@H](Cc3ccccc3)NC(=O)[C@H](C)NC(=O)[C@H](C)NC(=O)[C@H](CCC(=O)O)NC(=O)[C@H](CC(=O)O)NC1=O)NC(=O)[C@H](CC(C)C)NC(=O)[C@H](CC(=O)O)NC2=O (stereo partly drawn) [I-505, Ac-PL3-Asp-Leu-B5-Asp-Glu-Ala-Ala-Phe-Gln-S8-Phe-BztA-Gln-NH2] |  |  |  | 4.9 |  |  |  |  |  |  |  | IC50 ([1]; fluorescence polarization, read-out: beta-Catenin FP IC50): 0.023 µM; IC50 ([1]; read-out: FP EC50): 0.023 µM; CHI Log D (CHI Log D procedure; pH 7.4): 2.259; Solubility (Solubility in PBS): 50 µM (≈ 94.2 µg/mL); IC50 ([2]; Abs IC50, read-out: NanoBRET Abs IC50): 4.9 µM; IC50 ([2]; read-out: NanoBRET IC50): 5.6 µM; IC50 ([3]; Abs IC50, read-out: DLD1 reporter assay Abs IC50): 10.8 µM; IC50 ([3]; read-out: DLD1 4% Abs IC50, DLD1 4%, absolute IC50): 9.4 µM |
| CC(=O)N1CCC[C@]12CC=CCCCC1(CCCC=CCCCOC(=O)N3CC[C@@](C(=O)N[C@@H](Cc4ccsc4)C(=O)N[C@@H](Cc4csc5ccccc45)C(=O)N[C@@H](CO)C(N)=O)(C3)NC(=O)[C@H](CC(N)=O)NC(=O)[C@H](Cc3ccccc3)NC(=O)[C@H](C)NC(=O)[C@H](C)NC(=O)[C@H](CC(=O)O)NC(=O)[C@H](CC(=O)O)NC1=O)NC(=O)[C@H](CC(C)(C)C)NC(=O)[C@H](CC(=O)O)NC2=O (stereo partly drawn) [I-815, Ac-PL3-Asp-Npg-B5-Asp-Asp-Ala-Ala-Phe-Asn-PyrS2-3Thi-BztA-Ser-NH2] | 0.005 | 2.1 | 46 (≈ 86.3 µg/mL) |  |  |  |  |  |  |  |  | IC50 ([2]; read-out: NanoBRET Abs IC50): 15.4 µM; IC50 ([2]; read-out: NanoBRET IC50): 11.8 µM; IC50 ([3]; read-out: DLD1 4% Abs IC50, DLD1 4%): 10.3 µM |

Now from value to compound, other results behind:

| IC50 ([1]; read-out: beta-Catenin FP IC50) [µM] | chromatographic logD (CHI Log D procedure) | Solubility (Solubility in PBS; Solubility (uM)) [µM] | IC50 [2, 4] [µM] | IC50 [3, 5] [µM] | SMILES | DLD1 TCF c2 BrightGlo % Inhibition [3, 6] | DLD1 TCF c2 BrightGlo % Inhibition ([3]; 0.625 µM) | DLD1 TCF c2 BrightGlo % Inhibition ([3]; 1.25 µM) | DLD1 TCF c2 BrightGlo % Inhibition ([3]; 2.5 µM) | DLD1 TCF c2 BrightGlo % Inhibition ([3]; 10 µM) | DLD1 TCF c2 BrightGlo % Inhibition [3, 7] | other results |
| --- | --- | --- | --- | --- | --- | --- | --- | --- | --- | --- | --- | --- |
| 0.005 | 2.33 | 48 (≈ 91.5 µg/mL) | 14.1 | 4.8 | CC(=O)N1CCC[C@]12CC=CCCCC1(CCCC=CCCCOC(=O)N3CC[C@@](C(=O)N[C@@H](Cc4ccccc4Cl)C(=O)N[C@@H](Cc4csc5ccccc45)C(=O)N[C@H](CO)[C@@H](C)O)(C3)NC(=O)[C@H](CC(N)=O)NC(=O)[C@H](Cc3ccccc3)NC(=O)[C@H](C)NC(=O)[C@H](C)NC(=O)[C@H](CC(=O)O)NC(=O)[C@H](CC(=O)O)NC1=O)NC(=O)[C@H](CC(C)(C)C)NC(=O)[C@H](CC(=O)O)NC2=O (stereo partly drawn) [I-1082, Ac-PL3-Asp-Npg-B5-Asp-Asp-Ala-Ala-Phe-Asn-PyrS2-2C1F-BztA-Thro1] | 76.5% and 77.1% and 79.9% | 14.1% and 17.4% and 20.3% | 14.0% and 21.5% and 24.0% | 17.3% and 36.1% and 37.9% | 63.9% and 71.0% and 75.0% | 38.5% and 56.2% and 62.0% |  |
| 0.04 | 3.61 | 20 (≈ 37.5 µg/mL) | > 20 | > 20 | CC(=O)N1CCC[C@]12CC=CCCCC1(CCCC=CCCCCCC[C@@](C)(C(=O)N[C@@H](Cc3ccccc3Cl)C(=O)N[C@@H](Cc3csc4ccccc34)C(=O)N[C@@H](C(N)=O)[C@H](C)O)NC(=O)[C@H](CC(C)C)NC(=O)[C@H](Cc3ccccc3)NC(=O)[C@H](C)NC(=O)[C@H](C)NC(=O)[C@H](CC(=O)O)NC(=O)[C@H](CC(=O)O)NC1=O)NC(=O)[C@H](CC(C)(C)C)NC(=O)[C@H](CC(=O)O)NC2=O (stereo partly drawn) [I-1097, Ac-PL3-Asp-Npg-B5-Asp-Asp-Ala-Ala-Phe-Leu-S8-2C1F-BztA-dThr-NH2] |  |  |  |  |  |  |  |
| 0.005 | 2.5 | 45 (≈ 88.9 µg/mL) | 19.7 | 14.5 | CCNC(=O)[C@H](CCC(N)=O)NC(=O)[C@H](Cc1csc2ccccc12)NC(=O)[C@H](Cc1ccccc1Cl)NC(=O)[C@]12CCN(C1)C(=O)OCCCC=CCCCC1(CCCC=CC[C@]3(CCCN3C(C)=O)C(=O)N[C@@H](CC(=O)O)C(=O)N[C@@H](CC(C)(C)C)C(=O)N1)C(=O)N[C@@H](CC(=O)O)C(=O)N[C@@H](CC(=O)O)C(=O)N[C@@H](C)C(=O)N[C@@H](C)C(=O)N[C@@H](Cc1ccccc1)C(=O)N[C@@H](CC(N)=O)C(=O)N2 (stereo partly drawn) [I-1079, Ac-PL3-Asp-Npg-B5-Asp-Asp-Ala-Ala-Phe-Asn-PyrS2-2C1F-BztA-Gln-NHEt] | 55.6% and 58.1% and 54.7% | 1.4% and 6.9% and 6.8% | 1.4% and −0.6% and 2.6% | −25.7% and −0.8% and 5.1% | 34.2% and 39.4% and 42.0% | 7.4% and 16.0% and 26.5% |  |
